Experimental data reported in patent publication US6451761B1, “N′N′-dichlorinated omega-amino acids and uses thereof” (Queen's University at Kingston, priority 1999, dated 2002).
Read-outs that look alike come from different tables or passages of the source. Values belong to the compound of their own block, whether it stands above or below them.

How the values were obtained:
[1] = Stability on storage and in water or solvents (TLC and NMR monitoring); format: physicochemical
Procedure: Taurine (1.5 g) was suspended in a mixture of methanol (50 mL) and 4 M aqueous hydrochloric acid (25 mL). To this was added in small aliquots 4-6% aqueous sodium hypochlorite (40 mL) with stirring. The taurine dissolved with evolution of gentle heat. After 2 h the solution was concentrated (below 30° C.) to a small volume. Ethanol (200 mL) was added and the precipitated sodium chloride was removed by filtration. This procedure was repeated until no more precipitate formed. After concentration to a small volume of oily residue, 50/50 methanol-ethyl acetate (100 mL) was added, and the mixture was again filtered to remove residual sodium chloride. Upon reconcentration, the residue was treated with 0.04 M aqueous hydrochloric acid in acetone (25 mL). Slow concentration yielded white, iridescent plates, (0.7 g). […] Detection was by spraying with 2% KI-starch (yellow-brown) followed by ethanolic ninhydrin (faintly pink); M.P. 148° C. UV (λmax) 310 nm (ε1.851×10^2, 95% ethanol); ^1Hmr (D2O) 3.05-3.2(2H, m) and 3.95-4.05(2H, m); MS (es−): 191.9(18.76%), 193.8 (13.41%), 195.8(2.83%).
(§1) The chlorinaton and desalting methodology was essentially similar to that for taurine. […] Final isolation was from 50/50 (^v/v) diethylether-methanol plus dichloromethane, followed by slow evaporation at approximately 0-4° C. M.P. 197° C.; UV: λmax 308 (ε1.486×10^2, 95% ethanol); ^1Hmr (D2O) δ: 2.05-2.15 (2H, m, αCH2), 2.95-3.05 (2H, m, βCH2), 3.9-4.0 (2H, m, γCH2); MS (es−): 205.9(1.4%), 207.9(0.88%), 210.0(0.31%).
N,N-dichloro-GABA: UV: λmax 308 nm (ε2.974×10^2, 95% ethanol); ^1Hmr (CDCl3) δ: 1.95-2.05 (2H, m,αCH2), 2.4-2.5 (2H, m, βCH2), 3.6-3.75 (2H, m, γCH2). Decomposition in water was about 50% in 3 h at room temperature (TLC monitored). […]
The procedure for the synthesis of N′N′-dichloro-leucine was identical to that for the dichloroGABA. The product is a pale-yellow oil. When stored in dichloromethane, at −10° C.; the compound readily decomposed with an approximate half-life of 1 h.
From the above Examples it is apparent that dichlorination of ω-amino acids yields products which vary considerably in their stability. […] The most important precaution required for stable storage is the removal of all traces of water. […] A yield of between 30-60% was obtained, which can be improved by more efficiently exploiting the fact that primary amines are far less soluble than their chlorinated products in non-polar solvents. Those of ordinary skill in the art will recognize that the methods for isolation of the chlorinated amino acids described here can be extended to other α-carboxyl amino acids, as well as peptides and proteins.

mice = settings: for behaviour following injection: mice (20 g), 200 mg/Kg
Procedure: Two other mice (20 g) received dichlorotaurine (0.1 mL=100 mg/Kg) s.c. at 60 min intervals for three hours.

[2] = Solubility in nonpolar solvents; format: physicochemical; settings: compared with taurine homologue
Procedure: as §1

[3] = system: rat brain amino acid profile; test: Effect on rat brain amino acid profile; format: in vivo, Sprague-Dawley rats; settings: for % change GABA / % change GLUTAMATE / % change RATIO GLU/TAU / % change RATIO GLY/GLU / % change TAURINE: dichlorotaurine vs taurine (control); for GABA tissue content / GLUTAMATE tissue content / TAURINE tissue content: 10-30 min prior to sacrifice; for GABA tissue content / GLUTAMATE tissue content / TAURINE tissue content / RATIO GLU/TAU / RATIO GLY/GLU: average of three rats
Procedure: Three Sprague-Dawley rats were each injected with taurine (200 mg/kg) (control), and another three Sprague-Dawley rats were each administered dichlorotaurine (200 mg/kg): one at 10 min (i.p.), one at 20 min (i.p.) and one at 30 min (i.v.) prior to sacrifice. The animals were anesthetized with ether and then sacrificied by cardiac perfusion with phosphate buffered saline for 5 min, before the brains were removed at room temp.
Brain regions were dissected by hand on a glass cold plate (4-6° C.). The samples were homogenized in 9× weight by volume of water, then perchloric acid was added to a final concentration of 0.6 M to precipitate proteins. Samples (20 μL) were neutralized with 15 μL 2M KHCO3. The extracts were centrifuged and supernatants were diluted with water 1:100. Amino acid analysis was performed by derivatization with o-phthaldialdehyde followed by liquid chromatography (Varian LC 5000 and Schoeffel FS 970 fluorometer). […] Identification and quantification by peak height was calibrated against a standard amino acid solution.
Data are shown in Table1, below, where each taurine (control) value and dichlorotaurine value is the average of the three respective rats. The amino acid values represent endogenous neural tissue content and not extracellular (release) concentrations. The most pronounced effects of the dichlorotaurine are on the cortex-hippocampus. The data are interpreted as directed towards reduced (↓) excitability. Moreover, the data provide evidence that administration of dichlorotaurine attenuates the pathological consequences of excessive glutamate release, which is known to occur under clinical conditions such as, for example, epilepsy, intractable pain disorders, Huntington's Disease, Parkinson's Disease, and abnormalities associated with CNS trauma (e.g., stroke, spinal cord injury, impact trauma).

[4] = mice, 100 mg/Kg s.c. at 60 min intervals for three hours
[5] = frontal cortex, rats, 200 mg/kg

Compound: O=C(O)CCCN(Cl)Cl [N,N-dichloro-GABA, N,N-dichloro-γ-aminobutyric Acid]
relative stability when in contact with water [1]: the least stable
Decomposition in water ([1]; 3 h at room temperature, TLC monitored): about 50%

relative stability in water or 95% ethanol [1]: More stable than N,N-dichloro-GABA
Compound: O=C(O)CCN(Cl)Cl [N,N-dichloro-β-alanine, N′N′-dichloro-β-alanine]

relative stability when in contact with water ([1]; in contact with water): the least stable
half-life ([1]; stored in dichloromethane at −10° C., read-out: half-life of decomposition (converted)): ~1 h
Compound: CC(C)C[C@@H](C(=O)O)N(Cl)Cl [N′N′-dichloro-leucine, N,N-dichloro-L-leucine, reference compound]

melting point: 197 °C
solubility in nonpolar solvents [2]: more soluble in nonpolar solvents
hygroscopicity [1]: Fairly hygroscopic
stability in a humid atmosphere ([1]; humid atmosphere, compared with taurine homologue): more unstable than its taurine homologue
half-life ([1]; in water, read-out: t1/2 of decomposition to homotaurine (converted)): 24 h
Compound: O=S(=O)(O)CCCN(Cl)Cl [dichlorohomotaurine, N,N-dichlorohomotaurine]
behaviour following injection (mice): almost indistinguishable from that observed with the taurine homologue

Compound: O=S(=O)(O)CCN(Cl)Cl [dichlorotaurine, N′N′-dichlorotaurine]
onset of severe ataxia, laboured breathing and grooming behaviour towards the site of injection (mice; male mice (20 g), 200 mg/Kg i.p.): ≤ 5 min
behaviour following injection (mice): very quiet, showed strongly reduced responsiveness to environmental stimuli, and reduced mobility
Onset of sedation following the first injection (mice; [4]): 5 min
effect of the two subsequent injections on behaviour (mice; [4]): did not aggravate nor modify the tranquil behaviour
time after last injection to start of return to normal behaviour (mice; [4]): Two to three hours
Observation for the next 24 h (mice; mouse, in vivo, sc, 100 mg/kg): did not reveal any abnormalities
interpretation ([3]; GABA changes): ↓ excitability
interpretation ([3]; GLUTAMATE changes): ↓ excitability
interpretation ([3]; RATIO GLU/TAU changes): ↓ excitability
interpretation ([3]; RATIO GLY/GLU changes): ↓ excitability
interpretation ([3]; TAURINE changes): ↓ excitability
% change GABA ([3]; brain stem): — (±15% considered non-significant: no change)
% change GLUTAMATE ([3]; brain stem): — (±15% considered non-significant: no change)
% change RATIO GLU/TAU ([3]; brain stem): −33%
% change RATIO GLY/GLU ([3]; brain stem): +19%
% change TAURINE ([3]; brain stem): —* (±15% considered non-significant: no change)
GABA tissue content ([3]; brain stem, rats, 200 mg/kg): 2.32 nmoles/mg wet weight
GLUTAMATE tissue content ([3]; brain stem, rats, 200 mg/kg): 7.19 nmoles/mg wet weight
TAURINE tissue content ([3]; brain stem, rats, 200 mg/kg): 2.63 nmoles/mg wet weight
RATIO GLU/TAU ([3]; brain stem, rats, 200 mg/kg): 2.50
RATIO GLY/GLU ([3]; brain stem, rats, 200 mg/kg): 1.55
% change GABA ([3]; cerebellum): — (±15% considered non-significant: no change)
% change GLUTAMATE ([3]; cerebellum): — (±15% considered non-significant: no change)
% change RATIO GLU/TAU ([3]; cerebellum): — (±15% considered non-significant: no change)
% change RATIO GLY/GLU ([3]; cerebellum): — (±15% considered non-significant: no change)
% change TAURINE ([3]; cerebellum): — (±15% considered non-significant: no change)
GABA tissue content ([3]; cerebellum, rats, 200 mg/kg): 1.97 nmoles/mg wet weight
GLUTAMATE tissue content ([3]; cerebellum, rats, 200 mg/kg): 10.29 nmoles/mg wet weight
TAURINE tissue content ([3]; cerebellum, rats, 200 mg/kg): 5.36 nmoles/mg wet weight
RATIO GLU/TAU ([3]; cerebellum, rats, 200 mg/kg): 2.01
RATIO GLY/GLU ([3]; cerebellum, rats, 200 mg/kg): 0.46
% change GABA ([3]; frontal cortex): +29%
% change GLUTAMATE ([3]; frontal cortex): −20%
% change RATIO GLU/TAU ([3]; frontal cortex): −33%
% change RATIO GLY/GLU ([3]; frontal cortex): +42%
% change TAURINE ([3]; frontal cortex): +30%
GABA tissue content [3, 5]: 2.93 nmoles/mg wet weight
GLUTAMATE tissue content [3, 5]: 11.90 nmoles/mg wet weight
TAURINE tissue content [3, 5]: 10.00 nmoles/mg wet weight
RATIO GLU/TAU [3, 5]: 1.32
RATIO GLY/GLU [3, 5]: 0.40
% change GABA ([3]; hippocampus): +32%
% change GLUTAMATE ([3]; hippocampus): — (±15% considered non-significant: no change)
% change RATIO GLU/TAU ([3]; hippocampus): −24%
% change RATIO GLY/GLU ([3]; hippocampus): +20%
% change TAURINE ([3]; hippocampus): +52%
GABA tissue content ([3]; hippocampus, rats, 200 mg/kg): 3.73 nmoles/mg wet weight
GLUTAMATE tissue content ([3]; hippocampus, rats, 200 mg/kg): 15.76 nmoles/mg wet weight
TAURINE tissue content ([3]; hippocampus, rats, 200 mg/kg): 11.22 nmoles/mg wet weight
RATIO GLU/TAU ([3]; hippocampus, rats, 200 mg/kg): 1.45
RATIO GLY/GLU ([3]; hippocampus, rats, 200 mg/kg): 0.43
brain region of the most pronounced effects ([3]; rats, 200 mg/kg): cortex-hippocampus
relative stability when in contact with water [1]: the most
stability when dry [1]: reasonably stable for up to a month
storage stability [1]: stable for at least one month without appreciable decomposition
decomposition in 95% ethanol ([1]; 95% ethanol, over 48 h): little or no decomposition
stable in water ([1]; water, ambient temperature, TLC and NMR monitoring): at least 3 h

Compound: NCCS(=O)(=O)O [taurine, reference compound]
behaviour following injection (mice): normal behaviour
GABA tissue content ([3]; brain stem, rats, 200 mg/kg): 2.25 nmoles/mg wet weight
GLUTAMATE tissue content ([3]; brain stem, rats, 200 mg/kg): 8.20 nmoles/mg wet weight
TAURINE tissue content ([3]; brain stem, rats, 200 mg/kg): 2.29 nmoles/mg wet weight
RATIO GLU/TAU ([3]; brain stem, rats, 200 mg/kg): 3.73
RATIO GLY/GLU ([3]; brain stem, rats, 200 mg/kg): 1.30
GABA tissue content ([3]; cerebellum, rats, 200 mg/kg): 2.25 nmoles/mg wet weight
GLUTAMATE tissue content ([3]; cerebellum, rats, 200 mg/kg): 11.32 nmoles/mg wet weight
TAURINE tissue content ([3]; cerebellum, rats, 200 mg/kg): 5.38 nmoles/mg wet weight
RATIO GLU/TAU ([3]; cerebellum, rats, 200 mg/kg): 2.15
RATIO GLY/GLU ([3]; cerebellum, rats, 200 mg/kg): 0.48
GABA tissue content [3, 5]: 2.28 nmoles/mg wet weight
GLUTAMATE tissue content [3, 5]: 15.04 nmoles/mg wet weight
TAURINE tissue content [3, 5]: 7.67 nmoles/mg wet weight
RATIO GLU/TAU [3, 5]: 1.98
RATIO GLY/GLU [3, 5]: 0.28
GABA tissue content ([3]; hippocampus, rats, 200 mg/kg): 2.83 nmoles/mg wet weight
GLUTAMATE tissue content ([3]; hippocampus, rats, 200 mg/kg): 13.82 nmoles/mg wet weight
TAURINE tissue content ([3]; hippocampus, rats, 200 mg/kg): 7.38 nmoles/mg wet weight
RATIO GLU/TAU ([3]; hippocampus, rats, 200 mg/kg): 1.91
RATIO GLY/GLU ([3]; hippocampus, rats, 200 mg/kg): 0.36
